Consider 13 molecules from ChEMBL document CHEMBL1149957, “MALONIC ACID DERIVATIVES AS SIALYL LEWIS X MIMETICS” (Bioorg Med Chem Lett, 1997).

The subject of assay [1] is HL-60. The assay can be described thus: Tested for the inhibition of HL60 cell adhesion to recombinant E-selectin-IgG fusion protein measured by cell culture assay. The assay is classed as functional, cell-based. As to conditions: Homo sapiens.
Assay [2] concerns HL-60. Kind of assay: Tested for the inhibition of HL60 cell adhesion to recombinant P-selectin-IgG fusion protein measured by cell culture assay. The assay is classed as functional, cell-based. As to conditions: Homo sapiens.
The subject of assay [3] is Rattus norvegicus. Kind of assay: Tested for the inhibition of leukocyte adhesion in rat mesenteric venules in vivo at a dose of 1 mg/kg measured by intravital microscopy. The assay is classed as functional.
The subject of assay [4] is Rattus norvegicus. Kind of assay: Tested for the inhibition of leukocyte adhesion in rat mesenteric venules in vivo at a dose of 10 mg/kg measured by intravital microscopy. The assay is classed as functional.
The test system of assay [5] is Rattus norvegicus. The assay can be described thus: Tested for the inhibition of leukocyte adhesion in rat mesenteric venules in vivo at a dose of 3 mg/kg measured by intravital microscopy. The assay is classed as functional.

Regarding `CC1OC(OC2CCCCC2OCCCCCCCC(C(=O)O)C(=O)O)C(O)C(O)C1O` (configuration not stated), the half-inhibitory concentration (IC50) in the assay on HL-60 [1] and in the assay with HL-60 [2] was > 5 mM throughout.

For `CC1OC(OC2CCCCC2OC(=O)NCCCC(C(=O)O)C(=O)O)C(O)C(O)C1O` (configuration not stated), the inhibition in vivo (usually how much of the control response was suppressed) at 1 mg/kg in the assay on Rattus norvegicus [3] is 54%. Also, the half-maximal inhibitory concentration (IC50) (in general, the concentration that inhibits the measured activity by half) amounted to 1 mM in the assay on HL-60 [1] and 0.7 mM in the assay with HL-60 [2]. In the assay with Rattus norvegicus [4], this molecule came in with an inhibition in vivo at 10 mg/kg of 85%. For the same molecule, the inhibition in vivo at 3 mg/kg in the assay with Rattus norvegicus [5] worked out at 44%.

Take `CC1OC(OC2CCCCC2OC(=O)NCCCCC(C(=O)O)C(=O)O)C(O)C(O)C1O` (configuration not stated): the half-inhibitory concentration (IC50) in the assay with HL-60 [1] amounted to 4 mM; with HL-60 [2] it was 4.5 mM.

With `CC1OC(OC2CCCCC2OCCCCCCCCC(C(=O)O)C(=O)O)C(O)C(O)C1O` (configuration not stated), the IC50 in the assay with HL-60 [1] and in the assay with HL-60 [2] was > 5 mM throughout.

Turning to `CC1OC(OC2CCCCC2OCCCC(C(=O)O)C(=O)O)C(O)C(O)C1O` (configuration not stated), the IC50 in the assay on HL-60 [1] and with HL-60 [2] was > 5 mM throughout.

Turning to `CC1OC(OC2CCCCC2OCCCCCCC(C(=O)O)C(=O)O)C(O)C(O)C1O` (configuration not stated), the IC50 with HL-60 [1] and in the assay on HL-60 [2] was > 5 mM throughout.

In the case of `CC1OC(OC2CCCCC2OCCCCCCCCCCC(C(=O)O)C(=O)O)C(O)C(O)C1O` (configuration not stated), the IC50 in the assay with HL-60 [1] and in the assay on HL-60 [2] was > 5 mM each time.

`CC1OC(OC2C(OCCCCCC(C(=O)O)C(=O)O)CCOC2COCCCCc2ccccc2)C(O)C(O)C1O` (configuration not stated): the 50% inhibitory concentration (IC50) in the assay on HL-60 [1] was 2.6 mM; in the assay on HL-60 [2], 1.2 mM. The molecule further came in with an inhibition in vivo at 3 mg/kg with Rattus norvegicus [5] of 65%.

In the case of `CC1OC(OC2CCCCC2OCCCCCC(C(=O)O)C(=O)O)C(O)C(O)C1O` (configuration not stated), the IC50 with HL-60 [1] and in the assay on HL-60 [2] was > 5 mM throughout.

Regarding `CC1OC(OC2CCCCC2OC(=O)NCCC(C(=O)O)C(=O)O)C(O)C(O)C1O` (configuration not stated), the results for the IC50 in the assay with HL-60 [1] and with HL-60 [2] were 3.4 mM and 3.5 mM, respectively. For the same molecule, the inhibition in vivo at 10 mg/kg with Rattus norvegicus [4] worked out at 58%.

In the case of `CC1OC(OC2C(OCCCCC(C(=O)O)C(=O)O)CCOC2COCCCCc2ccccc2)C(O)C(O)C1O` (configuration not stated), the values for the IC50 in the assay with HL-60 [1] and in the assay with HL-60 [2] were 4.8 mM and 3.6 mM, respectively. Moreover, testing at 3 mg/kg in the assay with Rattus norvegicus [5] gave an inhibition in vivo of 62%.

In the case of `CC1OC(OC2CCCCC2OCCCCC(C(=O)O)C(=O)O)C(O)C(O)C1O` (configuration not stated), the 50% inhibitory concentration (IC50) with HL-60 [1] and in the assay with HL-60 [2] was > 5 mM in each case.

For `CC(=O)N[C@H]1[C@H]([C@@H](O)[C@@H](O)CO)O[C@@](O[C@@H]2[C@H](O)[C@H](O[C@H]3[C@H](O[C@@H]4O[C@@H](C)[C@@H](O)[C@H](O)[C@@H]4O)[C@H](NC(C)=O)C(O)O[C@H]3CO)O[C@@H](CO)[C@@H]2O)(C(=O)O)C[C@H]1O` (some centres not stated), the half-maximal inhibitory concentration (IC50) was 1.5 mM with HL-60 [1] and 3 mM in the assay with HL-60 [2].
